Data as given in patent publication US20050245399A1, “Pyrazole derivatives as herbicidal compositions containing them” (ISHIHARA SANGYO KAISHA, LTD., priority 2004, published 2005).

Key:
[1] = system: japanese bulrush (Scirpus juncoides: SCPJO); assay: Test Example 3 water application herbicidal activity (paddy), SCPJO; format: in vivo; conditions: 63 g a.i./ha, water application under submerged condition at 0.5 leaf stage, visually observed 14th day after application; 0 = untreated control, 100 = complete kill
Procedure, shortened: (§1)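 Submerged application in flooded paddy soil (3–4 cm water); weeds treated at 0.5-leaf stage, transplanted rice 4 d after transplanting. Scored visually as % growth control: weeds at 14 d, rice at 21 d.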

[2] = system: velvetleaf (Abutilon theophrasti): ABUTH; assay: Test Example 1 pre-emergence herbicidal activity, ABUTH; format: in vivo; conditions: Rate 63 g a.i./ha, visually observed 20th to 23rd day after application
Procedure, shortened: (§2)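 Seeds sown in upland field soil in pots; one day later compound, formulated as wettable powder or emulsifiable concentrate and diluted with water at 500 L/ha, sprayed pre-emergence at a predetermined active-ingredient rate. Growth control scored visually 20–23 days after application, 0 (untreated-like) to 100 (complete kill) %.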

[3] = system: soybean (Glycine max Merr.), GLXMA; assay: Test Example 2 post-emergence (foliage treatment) herbicidal activity, GLXMA; format: in vivo; conditions: 63 g a.i./ha
Procedure, shortened: (§3)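 A small sprayer delivered the diluted WP or EC formulation (500 L/ha water, 0.1% v/v spreader) over emerged seedlings in upland soil pots. Damage relative to untreated plants was graded visually from 0 to 100% three weeks or so later (days 20-23).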

[4] = system: rice (Oryza sativa L.: ORYSA); assay: Test Example 3 water application herbicidal activity (paddy), transplanted rice ORYSA; format: in vivo; conditions: 63 g a.i./ha, water application 4th day after transplantation of 2 leaf stage rice, visually observed 21st day after application; 0 = untreated control, 100 = complete kill
Procedure, shortened: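 Rice at 2-leaf stage is transplanted into flooded puddled soil and treated by water application 4 days later, at a predetermined active-ingredient dose. Crop injury is rated visually as growth control (0–100%) 21 days after treatment.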

[5] = system: green foxtail (Setaria viridis L.), SETVI; assay: Test Example 2 post-emergence (foliage treatment) herbicidal activity, SETVI; format: in vivo; conditions: 63 g a.i./ha
Procedure, shortened: as §3

[6] = system: green foxtail (Setaria viridis L.): SETVI; assay: Test Example 1 pre-emergence herbicidal activity, SETVI; format: in vivo; conditions: Rate 63 g a.i./ha, visually observed 20th to 23rd day after application
Procedure, shortened: as §2

[7] = system: prickly sida (Sida spinosa L.): SEDSP; assay: Test Example 1 pre-emergence herbicidal activity, SIDSP; format: in vivo; conditions: Rate 63 g a.i./ha, visually observed 20th to 23rd day after application
Procedure, shortened: as §2

[8] = system: japanese ribbon wapato (Sagittaria pygmaea: SA GPY); assay: Test Example 3 water application herbicidal activity (paddy), SAGPY; format: in vivo; conditions: 63 g a.i./ha, water application under submerged condition, tubers planted, visually observed 14th day after application; 0 = untreated control, 100 = complete kill
Procedure, shortened: as §1

[9] = system: corn (Zea mays L.), ZEAMX; assay: Test Example 2 post-emergence (foliage treatment) herbicidal activity, ZEAMX; format: in vivo; conditions: 63 g a.i./ha
Procedure, shortened: as §3

[10] = system: barnyardgrass (Echinochloa crus-galli L.), ECHCG; assay: Test Example 2 post-emergence (foliage treatment) herbicidal activity, ECHCG; format: in vivo; conditions: 63 g a.i./ha
Procedure, shortened: (§4)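 Pot-grown plants in upland soil were sprayed over the foliage at ECHCG 1.1-2.1, DIGSA 1.0-2.0, AMARE 0.1-1.5 and ORYSA 1.0-2 leaf stage. Wettable powder or emulsifiable concentrate was diluted in water at 500 L/ha plus 0.1% (v/v) spreader. Growth control was scored visually 20-23 days later, 0 (untreated) to 100% (complete kill).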

[11] = system: crabgrass (Digitaria sanguinalis L.), DIGSA; assay: Test Example 2 post-emergence (foliage treatment) herbicidal activity, DIGSA; format: in vivo; conditions: 63 g a.i./ha
Procedure, shortened: as §4

[12] = system: rice (Oryza sativa L.): ORYSA; assay: Test Example 1 pre-emergence herbicidal activity, ORYSA; format: in vivo; conditions: Rate 63 g a.i./ha, visually observed 20th to 23rd day after application
Procedure, shortened: as §2

[13] = system: redroot pigweed (Amaranthus retroflexus L.): AMARE; assay: Test Example 1 pre-emergence herbicidal activity, AMARE; format: in vivo; conditions: Rate 63 g a.i./ha, visually observed 20th to 23rd day after application
Procedure, shortened: as §2

[14] = system: velvetleaf (Abutilon theophrasti), ABUTH; assay: Test Example 2 post-emergence (foliage treatment) herbicidal activity, ABUTH; format: in vivo; conditions: 63 g a.i./ha
Procedure, shortened: as §3

[15] = system: redroot pigweed (Amaranthus retroflexus L.), AMARE; assay: Test Example 2 post-emergence (foliage treatment) herbicidal activity, AMARE; format: in vivo; conditions: 63 g a.i./ha
Procedure, shortened: as §4

[16] = system: soybean (Glycine max Merr.): GLXMA; assay: Test Example 1 pre-emergence herbicidal activity, GLXMA; format: in vivo; conditions: Rate 63 g a.i./ha, visually observed 20th to 23rd day after application
Procedure, shortened: as §2

[17] = system: barnyardgrass (Echinochloa crus-galli L.): ECHCG; assay: Test Example 1 pre-emergence herbicidal activity, ECHCG; format: in vivo; conditions: Rate 63 g a.i./ha, visually observed 20th to 23rd day after application
Procedure, shortened: as §2

[18] = system: wheat (Triticum aestivum L.), TRZAX; assay: Test Example 2 post-emergence (foliage treatment) herbicidal activity, TRZAX; format: in vivo; conditions: 63 g a.i./ha
Procedure, shortened: as §3

[19] = system: corn (Zea mays L.): ZEAMX; assay: Test Example 1 pre-emergence herbicidal activity, ZEAMX; format: in vivo; conditions: Rate 63 g a.i./ha, visually observed 20th to 23rd day after application
Procedure, shortened: as §2

[20] = system: wheat (Triticum aestivum L.): TRZAX; assay: Test Example 1 pre-emergence herbicidal activity, TRZAX; format: in vivo; conditions: Rate 63 g a.i./ha, visually observed 20th to 23rd day after application
Procedure, shortened: as §2

[21] = system: crabgrass (Digitaria sanguinalis L.): DIGSA; assay: Test Example 1 pre-emergence herbicidal activity, DIGSA; format: in vivo; conditions: Rate 63 g a.i./ha, visually observed 20th to 23rd day after application
Procedure, shortened: as §2

[22] = system: rice (Oryza sativa L.), ORYSA; assay: Test Example 2 post-emergence (foliage treatment) herbicidal activity, ORYSA; format: in vivo; conditions: 63 g a.i./ha
Procedure, shortened: as §4

[23] = system: barnyardgrass (Echinochiloa oryzicola: ECHOR); assay: Test Example 3 water application herbicidal activity (paddy), ECHOR; format: in vivo; conditions: 63 g a.i./ha, water application under submerged condition at 0.5 leaf stage, visually observed 14th day after application; 0 = untreated control, 100 = complete kill
Procedure, shortened: as §1

[24] = system: prickly sida (Sida spinosa L.), SIDSP; assay: Test Example 2 post-emergence (foliage treatment) herbicidal activity, SIDSP; format: in vivo; conditions: 63 g a.i./ha
Procedure, shortened: as §3

## COc1c(Cl)cc(F)c(-c2nn(C)c(OC(F)F)c2Cl)c1NC=O [Compound 1-4, [3-chloro-6-[4-chloro-5-(difluoromethoxy)-1-methyl-1H-pyrazol-3-yl]-5-fluoro-2-methoxyphenyl]-formamide]
[1]
  growth controlling degrees (%) SCPJO: 100%
[2]
  Pre-emergence Herbicidal Activity ABUTH (growth controlling degree): 100%
[3]
  growth controlling degree, GLXMA: 80%
[4]
  growth controlling degrees (%) ORYSA: 70%
[5]
  growth controlling degree, SETVI: 100%
[6]
  Pre-emergence Herbicidal Activity SETVI (growth controlling degree): 100%
[7]
  Pre-emergence Herbicidal Activity SIDSP (growth controlling degree): 100%
[8]
  growth controlling degrees (%) SAGPY: 98%
[9]
  growth controlling degree, ZEAMX: 80%
[10]
  growth controlling degree, ECHCO: 100%
other
  melting point: 100 to 103 °C
[11]
  growth controlling degree, DIGSP: 100%
[12]
  Pre-emergence Herbicidal Activity ORYSA (growth controlling degree): 80%
[13]
  Pre-emergence Herbicidal Activity AMARE (growth controlling degree): 100%
[14]
  growth controlling degree, ABUTH: 100%
[15]
  growth controlling degree, AMARE: 100%
[16]
  Pre-emergence Herbicidal Activity GLXMA (growth controlling degree): 40%
[17]
  Pre-emergence Herbicidal Activity ECHCG (growth controlling degree): 95%
[18]
  growth controlling degree, TRZAX: 50%
[19]
  Pre-emergence Herbicidal Activity ZEAMX (growth controlling degree): 40%
[20]
  Pre-emergence Herbicidal Activity TRZAX (growth controlling degree): 40%
[21]
  Pre-emergence Herbicidal Activity DIGSP (growth controlling degree): 100%
[22]
  growth controlling degree, ORYSA: 50%
[23]
  growth controlling degrees (%) ECHOR: 100%
[24]
  growth controlling degree, SIDSP: 100%

## COc1c(Cl)cc(F)c(-c2nn(C)c(OC(F)F)c2Cl)c1NC(=O)OCc1ccccn1 [Compound 1-69, [3-chloro-6-[4-chloro-5-(difluoromethoxy)-1-methyl-1H-pyrazol-3-yl]-5-fluoro-2-methoxyphenyl]-carbamic acid, 2-pyridinylmethyl ester]
[2]
  Pre-emergence Herbicidal Activity ABUTH (growth controlling degree): 100%
[3]
  growth controlling degree, GLXMA: 95%
[5]
  growth controlling degree, SETVI: 100%
[6]
  Pre-emergence Herbicidal Activity SETVI (growth controlling degree): 100%
[7]
  Pre-emergence Herbicidal Activity SIDSP (growth controlling degree): 100%
[9]
  growth controlling degree, ZEAMX: 95%
[10]
  growth controlling degree, ECHCO: 100%
other
  melting point: 35 to 37 °C
[11]
  growth controlling degree, DIGSP: 70%
[12]
  Pre-emergence Herbicidal Activity ORYSA (growth controlling degree): 10%
[13]
  Pre-emergence Herbicidal Activity AMARE (growth controlling degree): 100%
[14]
  growth controlling degree, ABUTH: 100%
[15]
  growth controlling degree, AMARE: 100%
[16]
  Pre-emergence Herbicidal Activity GLXMA (growth controlling degree): 10%
[17]
  Pre-emergence Herbicidal Activity ECHCG (growth controlling degree): 80%
[18]
  growth controlling degree, TRZAX: 50%
[19]
  Pre-emergence Herbicidal Activity ZEAMX (growth controlling degree): 10%
[20]
  Pre-emergence Herbicidal Activity TRZAX (growth controlling degree): 0%
[21]
  Pre-emergence Herbicidal Activity DIGSP (growth controlling degree): 100%
[22]
  growth controlling degree, ORYSA: 95%
[24]
  growth controlling degree, SIDSP: 100%
